This is an account of results in publication PMC6231127, “The structure of the deubiquitinase USP15 reveals a misaligned catalytic triad and an open ubiquitin-binding channel” (The Journal of Biological Chemistry, 2018).

Assay [1] concerns the target T1, FL-USP15 (Homo sapiens, UniProt Q9Y4E8).
T1 sequence (Q9Y4E8 2-952 isoform Q9Y4E8-2): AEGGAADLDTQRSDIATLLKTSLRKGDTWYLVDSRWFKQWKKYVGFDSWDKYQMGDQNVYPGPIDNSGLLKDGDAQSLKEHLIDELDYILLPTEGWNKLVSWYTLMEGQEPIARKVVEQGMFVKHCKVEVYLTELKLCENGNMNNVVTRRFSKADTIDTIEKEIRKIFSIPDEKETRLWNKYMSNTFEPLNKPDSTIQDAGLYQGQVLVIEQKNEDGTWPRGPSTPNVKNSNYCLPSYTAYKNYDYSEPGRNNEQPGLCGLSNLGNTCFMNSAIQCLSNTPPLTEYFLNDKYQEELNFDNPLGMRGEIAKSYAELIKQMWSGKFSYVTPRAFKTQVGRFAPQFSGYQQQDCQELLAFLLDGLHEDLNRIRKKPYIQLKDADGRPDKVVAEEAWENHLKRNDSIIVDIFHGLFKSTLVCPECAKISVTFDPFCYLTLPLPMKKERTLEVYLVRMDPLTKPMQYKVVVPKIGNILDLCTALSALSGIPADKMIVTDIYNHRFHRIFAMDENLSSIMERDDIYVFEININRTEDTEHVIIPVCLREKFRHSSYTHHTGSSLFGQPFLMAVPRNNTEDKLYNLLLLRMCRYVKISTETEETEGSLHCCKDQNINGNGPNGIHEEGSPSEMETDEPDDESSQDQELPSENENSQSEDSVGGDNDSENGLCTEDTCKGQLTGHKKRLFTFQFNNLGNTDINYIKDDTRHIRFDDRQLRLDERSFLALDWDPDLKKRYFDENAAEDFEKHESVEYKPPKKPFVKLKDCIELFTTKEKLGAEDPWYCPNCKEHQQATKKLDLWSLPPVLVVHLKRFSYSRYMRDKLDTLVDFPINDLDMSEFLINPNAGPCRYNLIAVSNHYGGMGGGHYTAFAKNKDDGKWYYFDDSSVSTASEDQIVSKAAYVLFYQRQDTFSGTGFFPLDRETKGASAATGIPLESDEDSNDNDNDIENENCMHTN
The assay can be described thus: linear diubiquitin gel shift cleavage assay (SDS-PAGE, ImageJ). The format is biochemical. In general terms: A gel shift assay detects complexes by their altered migration in electrophoresis.

In assay [2] the target is T2, USP15-D1D2 (Homo sapiens, UniProt Q9Y4E8, DEL469-785).
T2 construct: two copies in the asymmetric unit
As to the kind of experiment: X-ray crystal structure of complex, […] Å. The format is binding. Particulars: co-crystal, 0.1 M Na-Hepes pH 7.0, 14% MPD, 20 °C; S1' site near BL2 loop; ligand density in one of two copies.

For `O=C1c2c(O)ccc(O)c2C(=O)c2c(NCCNCCO)ccc(NCCNCCO)c21` [mitoxantrone, 1,4-dihydroxy-5,8-bis[2-(2-hydroxyethylamino)ethylamino]anthracene-9,10-dione], the IC50 (as a rule, the concentration that inhibits the measured activity by half) in assay [1] is 33 ± 11 µM. Besides, the “X-ray crystal structure of complex, 2.09 Å” value in assay [2] is “This USP15–mitoxantrone complex structure revealed predominantly hydrophobic interactions between mitoxantrone and USP15 residues”.
